Experimental data as given in US20260193264A1, “BENZOYPARAZINE PYRAZINES AND THEIR USES” (FOGHORN THERAPEUTICS INC., priority 2022, published 2026).

What was measured:
[1] = target: T1, HiBiT-BRM fusion protein in stable HeLa cell line (Homo sapiens, UniProt P51531); test: HiBiT-BRM cell-based degradation assay (Nano-Glo HiBiT Lytic Detection, 24 h); design: DC50: scale not given here; settings: HeLa HiBiT-BRM cells; for DC50: read-out: BRM HiBit Degradation IC50; for BRM HiBit Degradation Maximum (%): top dose 30 μM
T1 construct: expressed in transfected cells
T1 sequence (P51531 whole entry, the tested form may be a part): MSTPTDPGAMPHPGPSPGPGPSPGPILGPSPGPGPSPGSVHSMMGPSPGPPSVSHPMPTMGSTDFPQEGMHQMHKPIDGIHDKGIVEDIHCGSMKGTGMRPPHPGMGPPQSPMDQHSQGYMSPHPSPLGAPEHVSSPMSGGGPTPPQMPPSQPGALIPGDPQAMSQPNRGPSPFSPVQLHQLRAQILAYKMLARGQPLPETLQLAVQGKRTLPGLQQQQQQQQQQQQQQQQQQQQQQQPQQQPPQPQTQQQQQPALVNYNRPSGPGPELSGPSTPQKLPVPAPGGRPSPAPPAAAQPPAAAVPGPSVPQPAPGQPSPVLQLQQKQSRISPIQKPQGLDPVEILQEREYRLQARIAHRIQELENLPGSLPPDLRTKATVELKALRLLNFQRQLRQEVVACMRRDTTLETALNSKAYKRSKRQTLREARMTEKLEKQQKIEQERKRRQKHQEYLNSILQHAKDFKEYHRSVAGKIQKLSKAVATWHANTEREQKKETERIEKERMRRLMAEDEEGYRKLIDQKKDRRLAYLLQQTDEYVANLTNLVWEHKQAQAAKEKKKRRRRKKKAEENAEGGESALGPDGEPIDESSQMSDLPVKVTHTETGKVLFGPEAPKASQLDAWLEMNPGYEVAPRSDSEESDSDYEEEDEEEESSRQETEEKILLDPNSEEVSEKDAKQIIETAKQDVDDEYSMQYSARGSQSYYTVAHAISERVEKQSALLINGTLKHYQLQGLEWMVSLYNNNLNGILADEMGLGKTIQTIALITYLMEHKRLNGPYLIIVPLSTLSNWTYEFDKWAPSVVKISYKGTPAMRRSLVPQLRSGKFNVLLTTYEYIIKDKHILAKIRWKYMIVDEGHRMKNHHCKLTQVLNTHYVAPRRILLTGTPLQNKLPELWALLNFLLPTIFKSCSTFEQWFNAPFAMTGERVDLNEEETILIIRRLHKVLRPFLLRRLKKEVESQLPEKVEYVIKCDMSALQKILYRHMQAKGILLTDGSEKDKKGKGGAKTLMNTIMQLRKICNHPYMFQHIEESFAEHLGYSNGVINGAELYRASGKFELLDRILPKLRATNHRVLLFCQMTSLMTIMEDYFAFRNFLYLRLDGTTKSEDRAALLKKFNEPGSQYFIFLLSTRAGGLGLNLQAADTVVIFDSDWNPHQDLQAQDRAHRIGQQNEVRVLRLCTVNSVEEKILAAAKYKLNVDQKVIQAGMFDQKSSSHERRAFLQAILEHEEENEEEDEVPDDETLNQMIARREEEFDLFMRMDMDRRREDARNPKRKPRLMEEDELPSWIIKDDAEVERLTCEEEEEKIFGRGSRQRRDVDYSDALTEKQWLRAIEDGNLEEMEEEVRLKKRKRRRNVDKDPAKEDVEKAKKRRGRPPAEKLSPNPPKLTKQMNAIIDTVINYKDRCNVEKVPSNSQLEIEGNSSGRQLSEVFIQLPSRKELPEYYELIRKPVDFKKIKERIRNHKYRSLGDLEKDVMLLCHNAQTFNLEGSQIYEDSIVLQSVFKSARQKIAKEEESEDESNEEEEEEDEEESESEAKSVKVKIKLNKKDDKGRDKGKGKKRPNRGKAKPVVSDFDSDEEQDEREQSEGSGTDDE
In short: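 Luminescence from HiBiT/LgBiT complementation after lysis reports remaining HiBiT-BRM in stable HeLa cells exposed to compound for 24 h. Dosing used 3-fold serial dilutions, 10 points, 30 μM top final concentration. DMSO and a 2 μM BRM/BRG1 degrader standard defined 0% and 100% degradation.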

[2] = target: T2, HiBit-BRG1 fusion protein in stable HeLa cell line expressing HiBit-BRG1 and LgBit (Homo sapiens, UniProt P51532); test: HiBiT-BRG1 cell-based degradation assay (Nano-Glo HiBiT, 24 h); settings: HeLa HiBit-BRG1/LgBit cells; for Dmax: top dose 30 μM, read-out: BRG1 HiBit Degradation Maximum (%); for DC50: read-out: BRMG1 HiBit Degradation IC50
T2 construct: expressed in transfected cells
T2 sequence (P51532 whole entry, the tested form may be a part): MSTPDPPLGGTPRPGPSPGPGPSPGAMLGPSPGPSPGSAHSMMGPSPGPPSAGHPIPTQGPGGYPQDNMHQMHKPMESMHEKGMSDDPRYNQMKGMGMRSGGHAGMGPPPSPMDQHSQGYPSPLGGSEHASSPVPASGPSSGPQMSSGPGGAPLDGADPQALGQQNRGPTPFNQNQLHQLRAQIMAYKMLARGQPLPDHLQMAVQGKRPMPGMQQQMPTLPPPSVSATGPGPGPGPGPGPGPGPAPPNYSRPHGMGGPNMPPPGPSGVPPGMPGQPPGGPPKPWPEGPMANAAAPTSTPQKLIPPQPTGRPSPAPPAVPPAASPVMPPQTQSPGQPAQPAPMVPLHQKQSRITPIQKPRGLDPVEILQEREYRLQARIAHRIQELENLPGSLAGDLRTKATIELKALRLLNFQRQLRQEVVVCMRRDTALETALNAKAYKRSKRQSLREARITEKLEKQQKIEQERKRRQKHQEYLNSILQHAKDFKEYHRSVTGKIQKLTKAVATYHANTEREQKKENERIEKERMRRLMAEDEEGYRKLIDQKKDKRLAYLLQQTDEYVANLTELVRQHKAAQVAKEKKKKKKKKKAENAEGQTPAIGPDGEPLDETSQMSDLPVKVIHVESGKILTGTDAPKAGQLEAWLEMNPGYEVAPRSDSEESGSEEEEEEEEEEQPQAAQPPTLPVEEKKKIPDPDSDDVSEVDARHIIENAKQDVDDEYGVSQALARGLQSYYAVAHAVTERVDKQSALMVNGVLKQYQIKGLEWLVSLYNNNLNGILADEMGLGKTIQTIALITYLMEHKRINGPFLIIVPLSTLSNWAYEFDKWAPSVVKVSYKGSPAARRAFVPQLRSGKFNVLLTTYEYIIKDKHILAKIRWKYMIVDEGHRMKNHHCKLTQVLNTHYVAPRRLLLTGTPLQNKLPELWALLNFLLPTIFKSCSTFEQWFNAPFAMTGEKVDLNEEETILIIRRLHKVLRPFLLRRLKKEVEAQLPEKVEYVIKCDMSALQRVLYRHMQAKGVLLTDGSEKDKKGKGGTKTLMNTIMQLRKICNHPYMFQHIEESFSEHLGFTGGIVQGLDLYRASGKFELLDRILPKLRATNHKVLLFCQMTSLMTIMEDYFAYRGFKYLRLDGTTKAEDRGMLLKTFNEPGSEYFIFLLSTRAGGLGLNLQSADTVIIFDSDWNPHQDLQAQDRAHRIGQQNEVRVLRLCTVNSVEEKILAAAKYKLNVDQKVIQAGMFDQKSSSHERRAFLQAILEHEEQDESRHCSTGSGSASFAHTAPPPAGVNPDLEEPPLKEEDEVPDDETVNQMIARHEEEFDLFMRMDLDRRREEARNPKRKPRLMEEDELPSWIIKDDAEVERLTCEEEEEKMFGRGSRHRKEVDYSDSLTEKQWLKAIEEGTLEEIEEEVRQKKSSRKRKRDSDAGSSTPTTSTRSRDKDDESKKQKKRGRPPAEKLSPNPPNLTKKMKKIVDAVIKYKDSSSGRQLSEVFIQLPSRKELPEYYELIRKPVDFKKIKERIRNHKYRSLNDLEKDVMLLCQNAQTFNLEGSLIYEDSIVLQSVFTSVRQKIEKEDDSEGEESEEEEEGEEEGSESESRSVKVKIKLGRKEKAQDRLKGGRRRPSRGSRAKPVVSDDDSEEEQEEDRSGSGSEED
In short: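 Stable HeLa line co-expressing HiBiT-BRG1 and LgBiT, compound-treated 24 h; luminescence read after Nano-Glo HiBiT lytic reagent. % degradation normalised between DMSO (high control) and 2 μM reference BRM/BRG1 degrader (low control).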

| Compound | DC50 [1] | BRM HiBit Degradation Maximum (%) [1] | Dmax [2] | DC50 [2] |
| --- | --- | --- | --- | --- |
| Cc1ncsc1-c1ccc([C@H](C)NC(=O)[C@@H]2C[C@@H](O)CN2C(=O)[C@@H](c2cc(N3CC4(CN(c5cc(C)c6cc(-c7ccccc7O)nnc6c5)C4)C3)no2)C(C)C)cc1 [Compound 145, (2S,4R)-4-hydroxy-1-((R)-2-(3-(6-(3-(2-hydroxyphenyl)-5-methylcinnolin-7-yl)-2,6-diazaspiro[3.3]heptan-2-yl)isoxazol-5-yl)-3-methylbutanoyl)-N-((S)-1-(4-(4-methylthiazol-5-yl)phenyl)ethyl)pyrrolidine-2-carboxamide] | < 10 nM | A (“A” indicates maximum degradation ≥75%) | < 50% |  |
| Cc1ncsc1-c1ccc([C@H](C)NC(=O)[C@@H]2C[C@@H](O)CN2C(=O)[C@@H](c2cc(N3CCOC4(CN(c5ccc6nnc(-c7ccccc7O)cc6c5)C4)C3)no2)C(C)C)cc1 [Compound 146, (2S,4R)-4-hydroxy-1-((R)-2-(3-(2-(3-(2-hydroxyphenyl)cinnolin-6-yl)-5-oxa-2,8-diazaspiro[3.5]nonan-8-yl)isoxazol-5-yl)-3-methylbutanoyl)-N-((S)-1-(4-(4-methylthiazol-5-yl)phenyl)ethyl)pyrrolidine-2-carboxamide] | < 10 nM | A (“A” indicates maximum degradation ≥75%) | > 75% | > 10 nM |
| Cc1ncsc1-c1ccc([C@H](C)NC(=O)[C@@H]2C[C@@H](O)CN2C(=O)[C@@H](c2cc(N3CCOC4(CCN(c5ccc6nnc(-c7ccccc7O)cc6c5)CC4)C3)no2)C(C)C)cc1 [Compound 147, (2S,4R)-4-hydroxy-1-((R)-2-(3-(9-(3-(2-hydroxyphenyl)cinnolin-6-yl)-1-oxa-4,9-diazaspiro[5.5]undecan-4-yl)isoxazol-5-yl)-3-methylbutanoyl)-N-((S)-1-(4-(4-methylthiazol-5-yl)phenyl)ethyl)pyrrolidine-2-carboxamide] | < 10 nM | A (“A” indicates maximum degradation ≥75%) | > 75% | > 10 nM |
| Cc1ncsc1-c1ccc([C@H](C)NC(=O)[C@@H]2C[C@@H](O)CN2C(=O)[C@@H](c2cc(N3CCOC4(CCN(c5ccc6cc(-c7ccccc7O)nnc6c5)CC4)C3)no2)C(C)C)cc1 [Compound 148, (2S,4R)-4-hydroxy-1-((R)-2-(3-(9-(3-(2-hydroxyphenyl)cinnolin-7-yl)-1-oxa-4,9-diazaspiro [5.5]undecan-4-yl)isoxazol-5-yl)-3-methylbutanoyl)-N-((S)-1-(4-(4-methylthiazol-5-yl)phenyl)ethyl)pyrrolidine-2-carboxamide] | < 10 nM | A (“A” indicates maximum degradation ≥75%) | > 75% | < 10 nM |
| Cc1cc2nnc(-c3ccccc3O)cc2cc1-c1cc([C@H](C(=O)N2C[C@H](O)C[C@H]2C(=O)N[C@@H](C)c2ccc(-c3scnc3C)cc2)C(C)C)on1 [Compound 149, (2S,4R)-4-hydroxy-1-((R)-2-(3-(3-(2-hydroxyphenyl)-7-methylcinnolin-6-yl)isoxazol-5-yl)-3-methylbutanoyl)-N-((S)-1-(4-(4-methylthiazol-5-yl)phenyl)ethyl)pyrrolidine-2-carboxamide] | < 10 nM | A (“A” indicates maximum degradation ≥75%) | > 50% | > 10 nM |
| Cc1ncsc1-c1ccc([C@H](C)NC(=O)[C@@H]2C[C@@H](O)CN2C(=O)[C@H](C(C)C)n2cc(-c3ccc4nnc(-c5cccc(F)c5O)cc4c3)nn2)cc1 [Compound 150, (2S,4R)-1-((S)-2-(4-(3-(3-fluoro-2-hydroxyphenyl)cinnolin-6-yl)-1H-1,2,3-triazol-1-yl)-3-methylbutanoyl)-4-hydroxy-N-((S)-1-(4-(4-methylthiazol-5-yl)phenyl)ethyl)pyrrolidine-2-carboxamide] | < 10 nM | A (“A” indicates maximum degradation ≥75%) | > 75% | < 10 nM |
| Cc1ncsc1-c1ccc([C@H](C)NC(=O)[C@@H]2C[C@@H](O)CN2C(=O)[C@@H](c2cc(N3CCN4CCN(c5ccc6nnc(-c7ccccc7O)cc6c5)CC4C3)no2)C(C)C)cc1 (stereo partly drawn) [Compound 151, (2S,4R)-4-hydroxy-1-((2R)-2-(3-(8-(3-(2-hydroxyphenyl)cinnolin-6-yl)octahydro-2H-pyrazino[1,2-a]pyrazin-2-yl)isoxazol-5-yl)-3-methylbutanoyl)-N-((S)-1-(4-(4-methylthiazol-5-yl)phenyl)ethyl)pyrrolidine-2-carboxamide] | < 10 nM | A (“A” indicates maximum degradation ≥75%) | < 50% |  |
| Cc1ncsc1-c1ccc([C@H](C)NC(=O)[C@@H]2C[C@@H](O)CN2C(=O)[C@@H](c2cc(N3CC4(C3)CN(c3cc5cc(-c6ccccc6O)nnc5cc3C3CC3)C4)no2)C(C)C)cc1 [Compound 152, (2S,4R)-1-((R)-2-(3-(6-(7-cyclopropyl-3-(2-hydroxyphenyl)cinnolin-6-yl)-2,6-diazaspiro[3.3]heptan-2-yl)isoxazol-5-yl)-3-methylbutanoyl)-4-hydroxy-N-((S)-1-(4-(4-methylthiazol-5-yl)phenyl)ethyl)pyrrolidine-2-carboxamide] | < 10 nM | A (“A” indicates maximum degradation ≥75%) | > 75% | < 10 nM |
| Cc1ncsc1-c1ccc([C@H](C)NC(=O)[C@@H]2C[C@@H](O)CN2C(=O)[C@@H](c2cc(N3CCC4(CC3)CN(c3ccc5cc(-c6ccccc6O)nnc5c3)CCN4C)no2)C(C)C)cc1 [Compound 153, (2S,4R)-4-hydroxy-1-((R)-2-(3-(4-(3-(2-hydroxyphenyl)cinnolin-7-yl)-1-methyl-1,4,9-triazaspiro[5.5]undecan-9-yl)isoxazol-5-yl)-3-methylbutanoyl)-N-((S)-1-(4-(4-methylthiazol-5-yl)phenyl)ethyl)pyrrolidine-2-carboxamide] | < 10 nM | A (“A” indicates maximum degradation ≥75%) | < 50% |  |
| Cc1ncsc1-c1ccc([C@H](C)NC(=O)[C@@H]2C[C@@H](O)CN2C(=O)[C@@H](c2cc(N3CCCC4(CN(c5ccc6cc(-c7ccccc7O)nnc6c5)C4)C3)no2)C(C)C)cc1 [Compound 154, (2S,4R)-4-hydroxy-1-((R)-2-(3-(2-(3-(2-hydroxyphenyl)cinnolin-7-yl)-2,6-diazaspiro [3.5]nonan-6-yl)isoxazol-5-yl)-3-methylbutanoyl)-N-((S)-1-(4-(4-methylthiazol-5-yl)phenyl)ethyl)pyrrolidine-2-carboxamide] | < 10 nM | A (“A” indicates maximum degradation ≥75%) | > 75% | < 10 nM |
| Cc1ncsc1-c1ccc([C@H](C)NC(=O)[C@@H]2C[C@@H](O)CN2C(=O)[C@@H](c2cc(N3CCN4CCN(c5ccc6cc(-c7ccccc7O)nnc6c5)CC4C3)no2)C(C)C)cc1 (stereo partly drawn) [Compound 155, (2S,4R)-4-hydroxy-1-((2R)-2-(3-(8-(3-(2-hydroxyphenyl)cinnolin-7-yl)octahydro-2H-pyrazino[1,2-a]pyrazin-2-yl)isoxazol-5-yl)-3-methylbutanoyl)-N-((S)-1-(4-(4-methylthiazol-5-yl)phenyl)ethyl)pyrrolidine-2-carboxamide] | < 10 nM | A (“A” indicates maximum degradation ≥75%) | > 75% | < 10 nM |
| CNC(=O)[C@@H]1C[C@@H](O)CN1C(=O)[C@@H](c1cc(N2CC3(CN(c4ccc5cc(-c6ccccc6O)nnc5c4)C3)C2)no1)C(C)C [Compound 156, (2S,4R)-4-hydroxy-1-((R)-2-(3-(6-(3-(2-hydroxyphenyl)cinnolin-7-yl)-2,6-diazaspiro[3.3]heptan-2-yl)isoxazol-5-yl)-3-methylbutanoyl)-N-methylpyrrolidine-2-carboxamide] | < 10 nM | A (“A” indicates maximum degradation ≥75%) | < 50% |  |
| Cc1ncsc1-c1ccc([C@H](C)NC(=O)[C@@H]2C[C@@H](O)CN2C(=O)[C@@H](c2cc(N3CC4(C3)CN(c3cc5nnc(-c6ccccc6O)cc5cc3Cl)C4)no2)C(C)C)cc1 [Compound 157, (2S,4R)-1-((R)-2-(3-(6-(6-chloro-3-(2-hydroxyphenyl)cinnolin-7-yl)-2,6-diazaspiro[3.3]heptan-2-yl)isoxazol-5-yl)-3-methylbutanoyl)-4-hydroxy-N-((S)-1-(4-(4-methylthiazol-5-yl)phenyl)ethyl)pyrrolidine-2-carboxamide] | < 10 nM | A (“A” indicates maximum degradation ≥75%) | > 50% | < 10 nM |
| COc1cc2nnc(-c3ccccc3O)cc2cc1N1CC2(CN(c3cc([C@H](C(=O)N4C[C@H](O)C[C@H]4C(=O)N[C@@H](C)c4ccc(-c5scnc5C)cc4)C(C)C)on3)C2)C1 [Compound 158, (2S,4R)-4-hydroxy-1-((R)-2-(3-(6-(3-(2-hydroxyphenyl)-7-methoxycinnolin-6-yl)-2,6-diazaspiro[3.3]heptan-2-yl)isoxazol-5-yl)-3-methylbutanoyl)-N-((S)-1-(4-(4-methylthiazol-5-yl)phenyl)ethyl)pyrrolidine-2-carboxamide] | < 10 nM | A (“A” indicates maximum degradation ≥75%) | > 75% | < 10 nM |
